Experimental data: paper PMC7156458, “Synthetic biology based construction of biological activity-related library of fungal decalin-containing diterpenoid pyrones” (Nature Communications, 2020)

Molecular target: Aβ42 (Homo sapiens, UniProt P05067)
Experiment: Th-T (thioflavin-T) assay of Aβ42 aggregation
Format: biochemical
Settings: for Th-T fluorescence of Aβ42 (sheet Fig. 7a), mean of three wells: head suffix _50 (concentration 50); for Th-T assay plate reading, mean of three wells (Supplementary Fig. 47): source data, Ab alone and No Ab as controls; for Th-T fluorescence, mean of three wells: Supplementary Fig. 47 source data

Aβ42, sequence (P05067 672-713): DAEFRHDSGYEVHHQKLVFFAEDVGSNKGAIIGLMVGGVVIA

C=C1CCC2C(C)(CCC=C(C)C)C(O)CCC2(C)C1Cc1c(OC)oc(CO)c(C)c1=O (stereo not drawn) [Compound 12]
Th-T fluorescence of Aβ42 (sheet Fig. 7a), mean of three wells (reading M73): 1.414 | Th-T fluorescence of Aβ42 (sheet Fig. 7a), mean of three wells (reading M74): 1.457 | Th-T fluorescence of Aβ42 (sheet Fig. 7a), mean of three wells (reading M75): 1.421 | Th-T fluorescence of Aβ42 (sheet Fig. 7a), mean of three wells (reading M76): 1.415 | Th-T fluorescence of Aβ42 (sheet Fig. 7a), mean of three wells (reading M77): 1.436 | Th-T fluorescence of Aβ42 (sheet Fig. 7a), mean of three wells (reading M78): 1.437 | Th-T fluorescence of Aβ42 (sheet Fig. 7a), mean of three wells (reading M79): 1.425 | Th-T fluorescence of Aβ42 (sheet Fig. 7a), mean of three wells (reading M80): 1.423 | Th-T fluorescence of Aβ42 (sheet Fig. 7a), mean of three wells (reading M81): 1.42 | Th-T fluorescence of Aβ42 (sheet Fig. 7a), mean of three wells (reading M82): 1.419 | Th-T fluorescence of Aβ42 (sheet Fig. 7a), mean of three wells (reading M83): 1.439 | Th-T fluorescence of Aβ42 (sheet Fig. 7a), mean of three wells (reading M84): 1.415 | Th-T assay plate reading, mean of three wells (Supplementary Fig. 47) (measurement M1): 0.2937 | Th-T assay plate reading, mean of three wells (Supplementary Fig. 47) (measurement M2): 0.2498 | Th-T assay plate reading, mean of three wells (Supplementary Fig. 47) (measurement M3): 0.2612 | Th-T assay plate reading, mean of three wells (Supplementary Fig. 47) (measurement M4): 0.2666 | Th-T assay plate reading, mean of three wells (Supplementary Fig. 47) (measurement M5): 0.2891 | Th-T assay plate reading, mean of three wells (Supplementary Fig. 47) (measurement M6): 0.324 | Th-T assay plate reading, mean of three wells (Supplementary Fig. 47) (measurement M7): 0.6238 | Th-T assay plate reading, mean of three wells (Supplementary Fig. 47) (measurement M8): 1.342 | Th-T assay plate reading, mean of three wells (Supplementary Fig. 47) (measurement M9): 1.95 | Th-T assay plate reading, mean of three wells (Supplementary Fig. 47) (measurement M10): 2.214 | Th-T assay plate reading, mean of three wells (Supplementary Fig. 47) (measurement M11): 2.313 | Th-T assay plate reading, mean of three wells (Supplementary Fig. 47) (measurement M12): 2.311 | Th-T assay plate reading, mean of three wells (Supplementary Fig. 47) (measurement M13): 2.302 | Th-T assay plate reading, mean of three wells (Supplementary Fig. 47) (measurement M14): 2.328 | Th-T assay plate reading, mean of three wells (Supplementary Fig. 47) (measurement M15): 2.358 | Th-T assay plate reading, mean of three wells (Supplementary Fig. 47) (measurement M16): 2.3929 | Th-T fluorescence, mean of three wells (Fig. 7a) (reading M107, compound at 10 (head suffix _10)): 2.747 | Th-T fluorescence, mean of three wells (Fig. 7a) (reading M107, compound at 20 (head suffix _20)): 2.1149 | Th-T fluorescence, mean of three wells (Fig. 7a) (reading M107, compound at 50 (head suffix _50)): 1.42 | Th-T fluorescence, mean of three wells (Fig. 7a) (reading M108, compound at 10 (head suffix _10)): 2.748 | Th-T fluorescence, mean of three wells (Fig. 7a) (reading M108, compound at 20 (head suffix _20)): 2.099 | Th-T fluorescence, mean of three wells (Fig. 7a) (reading M108, compound at 50 (head suffix _50)): 1.438 | Th-T fluorescence, mean of three wells (Fig. 7a) (reading M109, compound at 10 (head suffix _10)): 2.719 | Th-T fluorescence, mean of three wells (Fig. 7a) (reading M109, compound at 20 (head suffix _20)): 2.112 | Th-T fluorescence, mean of three wells (Fig. 7a) (reading M109, compound at 50 (head suffix _50)): 1.43 | Th-T fluorescence, mean of three wells (Fig. 7a) (reading M110, compound at 10 (head suffix _10)): 2.701 | Th-T fluorescence, mean of three wells (Fig. 7a) (reading M110, compound at 20 (head suffix _20)): 2.0943 | Th-T fluorescence, mean of three wells (Fig. 7a) (reading M110, compound at 50 (head suffix _50)): 1.437 | Th-T fluorescence, mean of three wells (Fig. 7a) (reading M111, compound at 10 (head suffix _10)): 2.678 | Th-T fluorescence, mean of three wells (Fig. 7a) (reading M111, compound at 20 (head suffix _20)): 2.0886 | Th-T fluorescence, mean of three wells (Fig. 7a) (reading M111, compound at 50 (head suffix _50)): 1.44 | Th-T fluorescence, mean of three wells (Fig. 7a) (reading M112, compound at 10 (head suffix _10)): 2.674 | Th-T fluorescence, mean of three wells (Fig. 7a) (reading M112, compound at 20 (head suffix _20)): 2.104 | Th-T fluorescence, mean of three wells (Fig. 7a) (reading M112, compound at 50 (head suffix _50)): 1.449 | Th-T fluorescence, mean of three wells (Fig. 7a) (reading M113, compound at 10 (head suffix _10)): 2.652 | Th-T fluorescence, mean of three wells (Fig. 7a) (reading M113, compound at 20 (head suffix _20)): 2.1068 | Th-T fluorescence, mean of three wells (Fig. 7a) (reading M113, compound at 50 (head suffix _50)): 1.457 | Th-T fluorescence, mean of three wells (Fig. 7a) (reading M114, compound at 10 (head suffix _10)): 2.644 | Th-T fluorescence, mean of three wells (Fig. 7a) (reading M114, compound at 20 (head suffix _20)): 2.09 | Th-T fluorescence, mean of three wells (Fig. 7a) (reading M114, compound at 50 (head suffix _50)): 1.449 | Th-T fluorescence, mean of three wells (Fig. 7a) (reading M115, compound at 10 (head suffix _10)): 2.617 | Th-T fluorescence, mean of three wells (Fig. 7a) (reading M115, compound at 20 (head suffix _20)): 2.12 | Th-T fluorescence, mean of three wells (Fig. 7a) (reading M115, compound at 50 (head suffix _50)): 1.466 | Th-T fluorescence, mean of three wells (Fig. 7a) (reading M116, compound at 10 (head suffix _10)): 2.617 | Th-T fluorescence, mean of three wells (Fig. 7a) (reading M116, compound at 20 (head suffix _20)): 2.1099 | Th-T fluorescence, mean of three wells (Fig. 7a) (reading M116, compound at 50 (head suffix _50)): 1.496 | Th-T fluorescence, mean of three wells (Fig. 7a) (reading M117, compound at 10 (head suffix _10)): 2.5929 | Th-T fluorescence, mean of three wells (Fig. 7a) (reading M117, compound at 20 (head suffix _20)): 2.13 | Th-T fluorescence, mean of three wells (Fig. 7a) (reading M117, compound at 50 (head suffix _50)): 1.473 | Th-T fluorescence, mean of three wells (Fig. 7a) (reading M118, compound at 10 (head suffix _10)): 2.576 | Th-T fluorescence, mean of three wells (Fig. 7a) (reading M118, compound at 20 (head suffix _20)): 2.113 | Th-T fluorescence, mean of three wells (Fig. 7a) (reading M118, compound at 50 (head suffix _50)): 1.488 | Th-T fluorescence, mean of three wells (Fig. 7a) (reading M119, compound at 10 (head suffix _10)): 2.572 | Th-T fluorescence, mean of three wells (Fig. 7a) (reading M119, compound at 20 (head suffix _20)): 2.161 | Th-T fluorescence, mean of three wells (Fig. 7a) (reading M119, compound at 50 (head suffix _50)): 1.496 | Th-T fluorescence, mean of three wells (Fig. 7a) (reading M120, compound at 10 (head suffix _10)): 2.541 | Th-T fluorescence, mean of three wells (Fig. 7a) (reading M120, compound at 20 (head suffix _20)): 2.1524 | Th-T fluorescence, mean of three wells (Fig. 7a) (reading M120, compound at 50 (head suffix _50)): 1.517 | Th-T fluorescence, mean of three wells (Fig. 7a) (reading M121, compound at 10 (head suffix _10)): 2.53 | Th-T fluorescence, mean of three wells (Fig. 7a) (reading M121, compound at 20 (head suffix _20)): 2.137 | Th-T fluorescence, mean of three wells (Fig. 7a) (reading M121, compound at 50 (head suffix _50)): 1.531 | Th-T fluorescence, mean of three wells (Fig. 7a) (reading M122, compound at 10 (head suffix _10)): 2.517 | Th-T fluorescence, mean of three wells (Fig. 7a) (reading M122, compound at 20 (head suffix _20)): 2.124 | Th-T fluorescence, mean of three wells (Fig. 7a) (reading M122, compound at 50 (head suffix _50)): 1.501 | Th-T fluorescence, mean of three wells (Fig. 7a) (reading M123, compound at 10 (head suffix _10)): 2.493 | Th-T fluorescence, mean of three wells (Fig. 7a) (reading M123, compound at 20 (head suffix _20)): 2.112 | Th-T fluorescence, mean of three wells (Fig. 7a) (reading M123, compound at 50 (head suffix _50)): 1.514 | Th-T fluorescence, mean of three wells (Fig. 7a) (reading M124, compound at 10 (head suffix _10)): 2.48 | Th-T fluorescence, mean of three wells (Fig. 7a) (reading M124, compound at 20 (head suffix _20)): 2.17 | Th-T fluorescence, mean of three wells (Fig. 7a) (reading M124, compound at 50 (head suffix _50)): 1.559 | Th-T fluorescence, mean of three wells (Fig. 7a) (reading M125, compound at 10 (head suffix _10)): 2.466 | Th-T fluorescence, mean of three wells (Fig. 7a) (reading M125, compound at 20 (head suffix _20)): 2.169 | Th-T fluorescence, mean of three wells (Fig. 7a) (reading M125, compound at 50 (head suffix _50)): 1.553 | Th-T fluorescence, mean of three wells (Fig. 7a) (reading M126, compound at 10 (head suffix _10)): 2.458 | Th-T fluorescence, mean of three wells (Fig. 7a) (reading M126, compound at 20 (head suffix _20)): 2.184 | Th-T fluorescence, mean of three wells (Fig. 7a) (reading M126, compound at 50 (head suffix _50)): 1.559 | Th-T fluorescence, mean of three wells (Fig. 7a) (reading M127, compound at 10 (head suffix _10)): 2.439 | Th-T fluorescence, mean of three wells (Fig. 7a) (reading M127, compound at 20 (head suffix _20)): 2.22 | Th-T fluorescence, mean of three wells (Fig. 7a) (reading M127, compound at 50 (head suffix _50)): 1.57 | Th-T fluorescence, mean of three wells (Fig. 7a) (reading M128, compound at 10 (head suffix _10)): 2.428 | Th-T fluorescence, mean of three wells (Fig. 7a) (reading M128, compound at 20 (head suffix _20)): 2.151 | Th-T fluorescence, mean of three wells (Fig. 7a) (reading M128, compound at 50 (head suffix _50)): 1.57 | Th-T fluorescence, mean of three wells (time-course reading M97): 2.083 | Th-T fluorescence, mean of three wells (time-course reading M98): 2.088 | Th-T fluorescence, mean of three wells (time-course reading M99): 2.073 | Th-T fluorescence, mean of three wells (time-course reading M100): 2.078 | Th-T fluorescence, mean of three wells (time-course reading M101): 2.074 | Th-T fluorescence, mean of three wells (time-course reading M102): 2.082 | Th-T fluorescence, mean of three wells (time-course reading M103): 2.066 | Th-T fluorescence, mean of three wells (time-course reading M104): 2.071 | Th-T fluorescence, mean of three wells (time-course reading M105): 2.058 | Th-T fluorescence, mean of three wells (time-course reading M106): 2.067 | Th-T fluorescence, mean of three wells (time-course reading M107): 2.067 | Th-T fluorescence, mean of three wells (time-course reading M108): 2.064 | Th-T fluorescence, mean of three wells (time-course reading M109): 2.047 | Th-T fluorescence, mean of three wells (time-course reading M110): 2.071 | Th-T fluorescence, mean of three wells (time-course reading M111): 2.087 | Th-T fluorescence, mean of three wells (time-course reading M112): 2.064 | Th-T fluorescence, mean of three wells (time-course reading M113): 2.068 | Th-T fluorescence, mean of three wells (time-course reading M114): 2.053 | Th-T fluorescence, mean of three wells (time-course reading M115): 2.069 | Th-T fluorescence, mean of three wells (time-course reading M116): 2.057
